# From patent publication US20240293559A1, “SHP2 inhibitor, pharmaceutical composition containing the same and application thereof” (BEIJING TIDE PHARMACEUTICAL CO., LTD., priority 2021, published 2024)
# Molecular target: T1, SHP2 (Homo sapiens, UniProt Q06124)
# T1 construct: endogenous in cells; host or cells: MV 411
# T1 sequence (Q06124 1-593): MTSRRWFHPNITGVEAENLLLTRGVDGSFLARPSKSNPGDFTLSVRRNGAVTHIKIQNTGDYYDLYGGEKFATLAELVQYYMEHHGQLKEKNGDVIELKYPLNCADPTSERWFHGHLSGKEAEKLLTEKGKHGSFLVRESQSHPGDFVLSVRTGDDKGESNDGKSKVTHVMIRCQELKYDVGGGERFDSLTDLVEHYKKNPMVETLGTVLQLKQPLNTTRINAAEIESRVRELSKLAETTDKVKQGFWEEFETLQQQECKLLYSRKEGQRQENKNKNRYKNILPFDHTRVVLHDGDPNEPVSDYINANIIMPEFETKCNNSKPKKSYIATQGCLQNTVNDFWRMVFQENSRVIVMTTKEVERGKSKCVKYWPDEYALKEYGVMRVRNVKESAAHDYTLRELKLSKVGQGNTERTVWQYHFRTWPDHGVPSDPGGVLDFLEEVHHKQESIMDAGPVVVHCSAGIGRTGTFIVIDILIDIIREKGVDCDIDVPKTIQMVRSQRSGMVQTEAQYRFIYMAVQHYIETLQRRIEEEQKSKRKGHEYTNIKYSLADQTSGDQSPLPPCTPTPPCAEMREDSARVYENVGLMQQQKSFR
# Test: SHP2 degradation in MV 411 cells by Western blot (median degradation concentration)
# Assay type: cell-based
# Conditions: 24 hours with compound, SHP-2 antibody Western blot, concentration of the median degradation from exposure gray scale
# Excerpt: Reagent: complete DMEM medium, Gibco products. Fetal bovine serum, manufactured byThermoFisher. Trypsin, manufactured byThermoFisher. The SHP-2 antibody is produced by CST. Cell line, MV 411, the blast cells of patients with bi-phenotypic B-myelomonocytic leukemia, was established by Rovera. Measuring method: took the cells growing in the logarithmic phase, collected and suspended the cells in DMEM containing 10% fetal calf serum, gently blowed and beated the cells into single cell suspension by using a pipette, and counted the living cells under a microscope. […] Then cultured for 24 hours. All cells were collected and washed with PBS, lysed with RIPA lysate and collected into a 1.7 ml tube. […] metal bath for 5 minutes to fully denature the protein. 100V constant voltage electrophoresis after Western condensation and loading, stopped when bromophenol blue band reached the end point. The cellulose acetate membrane is transferred by a wet method, 45 minutes at a constant flow of 300-500 mA, 5% BSA is used for blocking for 1-2 hours at room temperature. Primary antibody of 1:500-1:8000 were used for incubation at 25° C. for 40 minutes and then washed three times. Secondary antibody was used for incubation for 15-40 min at room temperature. The proteins were detected using ultrasensitive ECL luminophores such as […], using an X-Ray film automatic developing machine. The concentration of the median degradation was calculated by exposure gray scale.
row,DC50 [nM],Compound
1,> 250,CCOc1cc2oc(-c3ccc(OCCOCCOCCOCCOc4cccc5c4C(=O)N(C4CCC(=O)NC4=O)C5=O)cc3Cl)cc(=O)c2cc1-c1cc(C(N)=O)cc(-n2ccnc2)c1 (stereo not shown) [Compound 60]
2,500,CCOc1cc2oc(-c3ccc(OCCOCCOCCOCCOc4cccc5c4C(=O)N(C4CCC(=O)NC4=O)C5=O)cc3Cl)cc(=O)c2cc1-c1cc(C(N)=O)cc(-c2ccncc2)c1 (stereo not shown) [Compound 58]
3,24.6,CCOc1cc2oc(-c3ccc(OCCOCCOCCOCCOc4cccc5c4C(=O)N(C4CCC(=O)NC4=O)C5=O)cc3Cl)cc(=O)c2cc1-c1cc(C(C)=O)cc(C(N)=O)c1 (stereo not shown) [Compound 75]
4,> 750,CCOc1cc2oc(-c3ccc(NCCOCCOCCOCCOc4cccc5c4C(=O)N(C4CCC(=O)NC4=O)C5=O)cc3Cl)cc(=O)c2cc1CN1CCC=C(n2c(=O)[nH]c3cc(NS(=O)(=O)C4CC4)ccc32)C1 (stereo not shown) [Compound 50]
5,> 250,CCOc1cc2oc(-c3ccc(OCCOCCOCCOCCOc4cccc5c4C(=O)N(C4CCC(=O)NC4=O)C5=O)cc3Cl)cc(=O)c2cc1-c1ccccc1C(N)=O (stereo not shown) [Compound 45]
6,> 250,CCOc1cc2oc(-c3ccc(OCCOCCOCCOCCOc4cccc5c4C(=O)N(C4CCC(=O)NC4=O)C5=O)cc3Cl)cc(=O)c2cc1-c1cc(NC(=O)Nc2ccccc2)cc(C(N)=O)c1 (stereo not shown) [Compound 71]
7,> 250,CCOc1cc2oc(-c3ccc(OCCOCCOCCOCCOc4cccc5c4C(=O)N(C4CCC(=O)NC4=O)C5=O)cc3Cl)cc(=O)c2cc1-c1cc(C(N)=O)cc(C2CCCCC2)c1 (stereo not shown) [Compound 54]
8,> 500,CCOc1cc2oc(-c3ccc(OCCOCCOCCOCCOc4cccc5c4C(=O)N(C4CCC(=O)NC4=O)C5=O)cc3Cl)cc(=O)c2cc1-c1cc(C(N)=O)cc(S(N)(=O)=O)c1 (stereo not shown) [Compound 80]
9,6,CCOc1cc2oc(-c3ccc(OCCOCCOCCOCCOc4cccc5c4C(=O)N(C4CCC(=O)NC4=O)C5=O)cc3Cl)cc(=O)c2cc1-c1cc(C(N)=O)ccc1O (stereo not shown) [Compound 46]
10,45,CCOc1cc2oc(-c3ccc(OCCOCCOCCOCCOc4ccc5c(c4)C(=O)N(C4CCC(=O)NC4=O)C5=O)cc3Cl)cc(=O)c2cc1-c1cncc(C(C)=O)c1 (stereo not shown) [Compound 87]
11,110,CCOc1cc2oc(-c3ccc(OCCOCCOCCOCCOc4cccc5c4C(=O)N(C4CCC(=O)NC4=O)C5=O)cc3Cl)cc(=O)c2cc1-c1ccc(S(C)(=O)=O)cc1F (stereo not shown) [Compound 28]
12,250,CCOc1cc2oc(-c3ccc(NCCOCCOCCOCCOc4cccc5c4C(=O)N(C4CCC(=O)NC4=O)C5=O)cc3Cl)cc(=O)c2cc1-c1cc(F)cc(C=O)c1 (stereo not shown) [Compound 17]
13,> 250,CCOc1cc2oc(-c3ccc(OCCOCCOCCOCCOc4cccc5c4C(=O)N(C4CCC(=O)NC4=O)C5=O)cc3Cl)cc(=O)c2cc1-c1cc(C(N)=O)cc(-c2c[nH]cn2)c1 (stereo not shown) [Compound 61]
14,> 1000,CCOc1cc2oc(-c3ccc(NCCOCCOCCOCCOc4cccc5c4C(=O)N(C4CCC(=O)NC4=O)C5=O)cc3Cl)cc(=O)c2cc1-c1cccc(C=O)c1 (stereo not shown) [Compound 18]
15,15,CCOc1cc2oc(-c3ccc(OCCOCCOCCOCCOc4cccc5c4C(=O)N(C4CCC(=O)NC4=O)C5=O)cc3Cl)cc(=O)c2cc1-c1cncc(C=O)c1 (stereo not shown) [Compound 29]
16,> 250,CCOc1cc2oc(-c3ccc(OCCOCCOCCOCCOc4cccc5c4C(=O)N(C4CCC(=O)NC4=O)C5=O)cc3Cl)cc(=O)c2cc1-c1cc(NS(=O)(=O)c2ccccc2)cc(C(N)=O)c1 (stereo not shown) [Compound 68]
17,250,CCOc1cc2oc(-c3ccc(NCCOCCOCCOCCOc4cccc5c4C(=O)N(C4CCC(=O)NC4=O)C5=O)cc3Cl)cc(=O)c2cc1-c1cccc(C(N)=O)c1 (stereo not shown) [Compound 16]
18,42,CCOc1cc2oc(-c3ccc(OCCOCCOCCOCCOc4cccc5c4C(=O)N(C4CCC(=O)NC4=O)C5=O)cc3Cl)cc(=O)c2cc1-c1ccc(S(=O)(=O)N2CCOCC2)cc1 (stereo not shown) [Compound 34]
19,> 250,CCOc1cc2oc(-c3ccc(OCCOCCOCCOCCOc4cccc5c4C(=O)N(C4CCC(=O)NC4=O)C5=O)cc3Cl)cc(=O)c2cc1-c1cc(NC(C)=O)cc(C(N)=O)c1 (stereo not shown) [Compound 64]
20,> 250,CCOc1cc2oc(-c3ccc(OCCOCCOCCOCCOc4cccc5c4C(=O)N(C4CCC(=O)NC4=O)C5=O)cc3Cl)cc(=O)c2cc1-c1cc(O)cc(C(N)=O)c1 (stereo not shown) [Compound 73]

row,DC50 [nM],Compound
1,250,CCOc1cc2oc(-c3ccc(NCCOCCOCCOCCOc4cccc5c4C(=O)N(C4CCC(=O)NC4=O)C5=O)cc3Cl)cc(=O)c2cc1-c1ccc(OC)cc1F (stereo not shown) [Compound 15]
2,> 250,CCOc1cc2oc(-c3ccc(NCCOCCOCCOCCOc4cccc5c4C(=O)N(C4CCC(=O)NC4=O)C5=O)cc3Cl)cc(=O)c2cc1CN1CCCC[C@@H]1C(N)=O (stereo partly shown) [Compound 51]
3,> 1000,CCOc1cc2oc(-c3ccc(OCCOCCOCCOCCOc4cccc5c4C(=O)N(C4CCC(=O)NC4=O)C5=O)cc3Cl)cc(=O)c2cc1-c1cc(C(N)=O)cc(-c2cccnc2)c1 (stereo not shown) [Compound 57]
4,50,CCOc1cc2oc(-c3ccc(NCCOCCOCCOCCOc4cccc5c4C(=O)N(C4CCC(=O)NC4=O)C5=O)cc3Cl)cc(=O)c2cc1-c1cc(C=O)ccc1F (stereo not shown) [Compound 13]
5,> 250,CCOc1cc2oc(-c3ccc(OCCOCCOCCOCCOc4cccc5c4C(=O)N(C4CCC(=O)NC4=O)C5=O)cc3Cl)cc(=O)c2cc1-c1cc(NS(C)(=O)=O)cc(C(N)=O)c1 (stereo not shown) [Compound 66]
6,> 250,CCOc1cc2oc(-c3ccc(NCCOCCOCCOCCOc4cccc5c4C(=O)N(C4CCC(=O)NC4=O)C5=O)cc3Cl)cc(=O)c2cc1COc1ccccc1C(N)=O (stereo not shown) [Compound 52]
7,500,CCOc1cc2oc(-c3ccc(OCCOCCOCCOCCOc4cccc5c4C(=O)N(C4CCC(=O)NC4=O)C5=O)cc3Cl)cc(=O)c2cc1-c1cc(C(N)=O)cc(S(C)(=O)=O)c1 (stereo not shown) [Compound 79]
8,> 250,CCOc1cc2oc(-c3ccc(OCCOCCOCCOCCOc4cccc5c4C(=O)N(C4CCC(=O)NC4=O)C5=O)cc3Cl)cc(=O)c2cc1-c1cc(C(N)=O)cc(C(=O)N(C)C)c1 (stereo not shown) [Compound 77]
9,> 250,CCOc1cc2oc(-c3ccc(OCCOCCOCCOCCOc4cccc5c4C(=O)N(C4CCC(=O)NC4=O)C5=O)cc3Cl)cc(=O)c2cc1-c1cc(C(N)=O)cc(C(C)(C)C)c1 (stereo not shown) [Compound 43]
10,55,CCOc1cc2oc(-c3ccc(OCc4cn(CC(=O)N5CCC(OC6CC(Oc7cccc8c7C(=O)N(C7CCC(=O)NC7=O)C8=O)C6)CC5)nn4)cc3Cl)cc(=O)c2cc1-c1cccc(C(C)=O)c1 (stereo not shown) [Compound 88]
11,> 250,CCOc1cc2oc(-c3ccc(OCCOCCOCCOCCOc4cccc5c4C(=O)N(C4CCC(=O)NC4=O)C5=O)cc3Cl)cc(=O)c2cc1-c1cc(C(N)=O)cc(C(=O)Nc2ccccc2)c1 (stereo not shown) [Compound 78]
12,2000,CCOc1cc2oc(-c3ccc(OCCOCCOCCOCCOc4cccc5c4C(=O)N(C4CCC(=O)NC4=O)C5=O)cc3Cl)cc(=O)c2cc1-c1cc(N)cc(C(=O)O)c1 (stereo not shown) [Compound 30]
13,850,CCOc1cc2oc(-c3ccc(OCCOCCOCCOCCOc4cccc5c4C(=O)N(C4CCC(=O)NC4=O)C5=O)cc3Cl)cc(=O)c2cc1-c1cc(N)cc(C(N)=O)c1 (stereo not shown) [Compound 32]
14,25,CCOc1cc2oc(-c3ccc(NCCOCCOCCOCCOc4cccc5c4C(=O)N(C4CCC(=O)NC4=O)C5=O)cc3Cl)cc(=O)c2cc1-c1cccc(C(C)=O)c1 (stereo not shown) [Compound 14]
15,> 250,CCOc1cc2oc(-c3ccc(OCCOCCOCCOCCOc4cccc5c4C(=O)N(C4CCC(=O)NC4=O)C5=O)cc3Cl)cc(=O)c2cc1-c1cc(C(N)=O)cc(N(C)C)c1 (stereo not shown) [Compound 63]
16,50,CCOc1cc2oc(-c3ccc(NCCOCCOCCOCCOc4ccc5c(c4)C(=O)N(C4CCC(=O)NC4=O)C5=O)cc3Cl)cc(=O)c2cc1-c1cccc(C(C)=O)c1 (stereo not shown) [Compound 86]
17,20,CCOc1cc2oc(-c3ccc(NCCOCCOCCOCCOc4ccc5c(c4)C(=O)N(C4CCC(=O)NC4=O)C5=O)cc3Cl)cc(=O)c2cc1-c1cccc(C(C)=O)c1 (stereo not shown) [Compound 36]
18,> 750,CCOc1cc2oc(-c3ccc(OCCOCCOCCOCCOc4cccc5c4C(=O)N(C4CCC(=O)NC4=O)C5=O)cc3Cl)cc(=O)c2cc1-c1cc(C(N)=O)cc(-c2ncc[nH]2)c1 (stereo not shown) [Compound 59]
19,3500,CCOc1cc2oc(-c3ccc(OCCOCCOCCOCCOc4cccc5c4C(=O)N(C4CCC(=O)NC4=O)C5=O)cc3Cl)cc(=O)c2cc1-c1ccc(S(=O)(=O)N2CCOCC2)cc1F (stereo not shown) [Compound 33]
20,920,CCOc1cc2oc(-c3ccc(NCCOCCOCCOCCOc4cccc5c4C(=O)N(C4CCC(=O)NC4=O)C5=O)cc3Cl)cc(=O)c2cc1-c1ccc2c(c1)CCC2 (stereo not shown) [Compound 12]
